In ChEMBL document CHEMBL4387741, “Optimization of novel reversible Bruton's tyrosine kinase inhibitors identified using Tethering-fragment-based screens” (Bioorg Med Chem, 2019) one finds inhibition and logD data, which are given here for 2 compounds.

Data set [1] concerns the target Ankyrin repeat and protein kinase domain-containing protein 1 (Homo sapiens) (UniProt Q8NFD2). Briefly: Inhibition of wild-type human partial length ANKK1 (M1 to A305 residues) expressed in mammalian expression system at 10 uM by Kinomescan method relative to control.
Data set [2] concerns the target Cyclin-dependent kinase 3 (Homo sapiens) (UniProt Q00526). Nature of the data set: Inhibition of wild-type human full length CDK3 (M1 to H305 residues) expressed in bacterial expression system at 10 uM by Kinomescan method relative to control.
The target in data set [3] is Serine/threonine-protein kinase DCLK3 (Homo sapiens) (UniProt Q9C098). Briefly: Inhibition of wild-type human partial length DCAMKL3 (E140 to V628 residues) expressed in bacterial expression system at 10 uM by Kinomescan method relative to control.
Data set [4] deals with Epidermal growth factor receptor (Homo sapiens), P00533 [UNDEFINED MUTATION]. Briefly: Inhibition of human partial length EGFR L747-T751del/Sins mutant expressed in bacterial expression system at 10 uM by Kinomescan method relative to control.
Data set [5] deals with Calcium-dependent protein kinase 1 (Plasmodium falciparum) (UniProt P62344). Briefly: Inhibition of wild-type Plasmodium falciparum full length CDPK1 (M1 to S524 residues) expressed in mammalian expression system at 10 uM by Kinomescan method relative to control.
Data set [6] concerns the target Phosphorylase b kinase gamma catalytic chain, skeletal muscle/heart isoform (Homo sapiens) (UniProt Q16816). Nature of the data set: Inhibition of wild-type human full length PHKG1 (M1 to Y387 residues) expressed in bacterial expression system at 10 uM by Kinomescan method relative to control.
In data set [7] the test system is Phosphatidylinositol 4,5-bisphosphate 3-kinase catalytic subunit alpha isoform (Homo sapiens), P42336 [M1043I]. Briefly: Inhibition of human partial length PIK3CA M1043I mutant (R108 to N1068 residues) expressed in mammalian expression system at 10 uM by Kinomescan method relative to control.
Data set [8] has as its target Serine/threonine-protein kinase SIK2 (Homo sapiens) (UniProt Q9H0K1). Briefly: Inhibition of wild-type human full length SIK2 (M1 to N926 residues) expressed in bacterial expression system at 10 uM by Kinomescan method relative to control.
Data set [9] addresses Tyrosine-protein kinase receptor Tie-1 (Homo sapiens) (UniProt P35590). Briefly: Inhibition of wild-type human partial length TIE1 (T819 to A1138 residues) expressed in bacterial expression system at 10 uM by Kinomescan method relative to control.
Data set [10] concerns the target Mitogen-activated protein kinase kinase kinase 12 (Homo sapiens) (UniProt Q12852). Nature of the data set: Inhibition of wild-type human full length DLK (M1 to P859 residues) expressed in mammalian expression system at 10 uM by Kinomescan method relative to control.
For data set [11], the target named is Calcium/calmodulin-dependent protein kinase type 1B (Homo sapiens) (UniProt Q6P2M8). Briefly: Inhibition of wild-type human partial length CAMK1B (W9 to A311 residues) expressed in mammalian expression system at 1 uM by Kinomescan method relative to control.
Data set [12] concerns the target Cyclin-dependent kinase 4 (Homo sapiens) (UniProt P11802). Briefly: Inhibition of wild-type human full length CDK4 (M1 to E303 residues) expressed in mammalian expression system at 1 uM by Kinomescan method relative to control.
The target of data set [13] is Casein kinase I isoform alpha (Homo sapiens) (UniProt P48729). Briefly: Inhibition of wild-type human partial length CSNK1A1 (M1 to L450 residues) expressed in mammalian expression system at 1 uM by Kinomescan method relative to control.
The test system of data set [14] is Epidermal growth factor receptor (Homo sapiens), P00533 [UNDEFINED MUTATION]. Nature of the data set: Inhibition of human partial length EGFR E746-A750del mutant expressed in bacterial expression system at 1 uM by Kinomescan method relative to control.
Data set [15] deals with Epidermal growth factor receptor (Homo sapiens), P00533 [G719S]. Briefly: Inhibition of human partial length EGFR G719S mutant (R669 to V1011 residues) expressed in bacterial expression system at 1 uM by Kinomescan method relative to control.
The test system of data set [16] is Epidermal growth factor receptor (Homo sapiens), P00533 [L858R]. Nature of the data set: Inhibition of human partial length EGFR L858R mutant (R669 to V1011 residues) expressed in bacterial expression system at 1 uM by Kinomescan method relative to control.
Data set [17] deals with Hormonally up-regulated neu tumor-associated kinase (Homo sapiens) (UniProt P57058). Briefly: Inhibition of wild-type human partial length HUNK (A31 to K354 residues) expressed in bacterial expression system at 1 uM by Kinomescan method relative to control.
Data set [18] addresses Mast/stem cell growth factor receptor Kit (Homo sapiens) (UniProt P10721). Nature of the data set: Inhibition of wild-type human partial length KIT (I571 to D952 residues) expressed in bacterial expression system at 1 uM by Kinomescan method relative to control.
The target in data set [19] is Tyrosine-protein kinase Lyn (Homo sapiens) (UniProt P07948). Nature of the data set: Inhibition of wild-type human partial length LYN (C219 to Q511 residues) expressed in bacterial expression system at 1 uM by Kinomescan method relative to control.
Data set [20] addresses MAP/microtubule affinity-regulating kinase 3 (Homo sapiens) (UniProt P27448). Nature of the data set: Inhibition of wild-type human full length MARK3 (M1 to L729 residues) expressed in bacterial expression system at 1 uM by Kinomescan method relative to control.
Data set [21] concerns the target Myosin-IIIa (Homo sapiens) (UniProt Q8NEV4). Briefly: Inhibition of wild-type human partial length MYO3A (M1 to K338 residues) expressed in bacterial expression system at 1 uM by Kinomescan method relative to control.
Data set [22] has as its target Serine/threonine-protein kinase Nek6 (Homo sapiens) (UniProt Q9HC98). Briefly: Inhibition of wild-type human full length NEK6 (M8 to T313 residues) expressed in bacterial expression system at 1 uM by Kinomescan method relative to control.
Data set [23] has as its target Serine/threonine-protein kinase PLK4 (Homo sapiens) (UniProt O00444). Nature of the data set: Inhibition of wild-type human partial length PLK4 (M1 to S273 residues) expressed in mammalian expression system at 1 uM by Kinomescan method relative to control.
Data set [24] addresses Proto-oncogene tyrosine-protein kinase receptor Ret (Homo sapiens) (UniProt P07949). Nature of the data set: Inhibition of wild-type human partial length RET (E713 to D1014 residues) expressed in bacterial expression system at 1 uM by Kinomescan method relative to control.
The target in data set [25] is Ribosomal protein S6 kinase alpha-3 (Homo sapiens) (UniProt P51812). Nature of the data set: Inhibition of wild-type human partial length C-terminal RSK2 kinase domain 2 (V402 to S715 residues) expressed in mammalian expression system at 1 uM by Kinomescan method relative to control.
The target of data set [26] is Mitogen-activated protein kinase kinase kinase 20 (Homo sapiens) (UniProt Q9NYL2). Nature of the data set: Inhibition of wild-type human partial length ZAK (M1 to L331 residues) expressed in bacterial expression system at 1 uM by Kinomescan method relative to control.
Data set [27] is described as follows: Lipophilicity, log D of the compound. It is filed as physicochemical. As to conditions: octanol/water.

Chain of Epidermal growth factor receptor (Homo sapiens), P00533 [UNDEFINED MUTATION] (P00533 whole entry, looked up, stated change not applied, the tested form may be a part): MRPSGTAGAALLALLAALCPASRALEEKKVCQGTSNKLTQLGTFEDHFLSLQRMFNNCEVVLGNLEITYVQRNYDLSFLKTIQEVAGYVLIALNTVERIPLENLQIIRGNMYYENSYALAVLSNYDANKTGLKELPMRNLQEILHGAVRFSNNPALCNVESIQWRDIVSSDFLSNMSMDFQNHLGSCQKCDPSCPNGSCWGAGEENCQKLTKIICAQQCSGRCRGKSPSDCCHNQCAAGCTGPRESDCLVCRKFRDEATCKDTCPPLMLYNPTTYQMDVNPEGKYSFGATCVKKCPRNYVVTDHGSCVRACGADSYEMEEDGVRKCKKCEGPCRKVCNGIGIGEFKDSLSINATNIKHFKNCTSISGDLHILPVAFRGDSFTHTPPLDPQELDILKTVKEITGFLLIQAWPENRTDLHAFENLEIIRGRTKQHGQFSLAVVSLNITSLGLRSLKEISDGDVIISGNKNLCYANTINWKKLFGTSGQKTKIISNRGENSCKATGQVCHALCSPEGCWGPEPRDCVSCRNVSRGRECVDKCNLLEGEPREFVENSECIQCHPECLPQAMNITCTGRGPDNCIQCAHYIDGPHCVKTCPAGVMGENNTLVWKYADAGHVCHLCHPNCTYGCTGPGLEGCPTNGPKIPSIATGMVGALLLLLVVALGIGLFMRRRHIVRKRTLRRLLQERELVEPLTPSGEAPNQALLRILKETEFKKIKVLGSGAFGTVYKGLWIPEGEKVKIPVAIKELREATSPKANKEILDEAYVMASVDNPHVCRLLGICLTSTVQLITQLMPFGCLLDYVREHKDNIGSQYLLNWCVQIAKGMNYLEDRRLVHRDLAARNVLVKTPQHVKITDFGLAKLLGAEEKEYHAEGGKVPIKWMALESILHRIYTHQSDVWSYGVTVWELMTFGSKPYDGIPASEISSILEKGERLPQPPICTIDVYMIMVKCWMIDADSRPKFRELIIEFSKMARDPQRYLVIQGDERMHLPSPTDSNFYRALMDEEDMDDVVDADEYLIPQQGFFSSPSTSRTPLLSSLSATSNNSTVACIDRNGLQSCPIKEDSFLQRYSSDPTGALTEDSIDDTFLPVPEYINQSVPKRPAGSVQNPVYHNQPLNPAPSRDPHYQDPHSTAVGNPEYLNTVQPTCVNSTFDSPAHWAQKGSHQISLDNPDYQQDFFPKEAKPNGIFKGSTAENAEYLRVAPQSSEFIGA
Chain of Cyclin-dependent kinase 3 (Homo sapiens) (Q00526 whole entry, looked up, the tested form may be a part): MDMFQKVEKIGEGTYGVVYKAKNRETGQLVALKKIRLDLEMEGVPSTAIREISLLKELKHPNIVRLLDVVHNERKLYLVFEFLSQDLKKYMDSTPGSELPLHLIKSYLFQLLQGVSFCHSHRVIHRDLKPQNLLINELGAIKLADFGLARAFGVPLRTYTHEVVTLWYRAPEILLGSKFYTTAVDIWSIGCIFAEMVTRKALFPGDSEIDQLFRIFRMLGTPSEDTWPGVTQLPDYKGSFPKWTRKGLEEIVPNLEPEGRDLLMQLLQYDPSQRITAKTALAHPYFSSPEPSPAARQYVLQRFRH
Chain of Mitogen-activated protein kinase kinase kinase 20 (Homo sapiens) (Q9NYL2 2-800 limits assumed): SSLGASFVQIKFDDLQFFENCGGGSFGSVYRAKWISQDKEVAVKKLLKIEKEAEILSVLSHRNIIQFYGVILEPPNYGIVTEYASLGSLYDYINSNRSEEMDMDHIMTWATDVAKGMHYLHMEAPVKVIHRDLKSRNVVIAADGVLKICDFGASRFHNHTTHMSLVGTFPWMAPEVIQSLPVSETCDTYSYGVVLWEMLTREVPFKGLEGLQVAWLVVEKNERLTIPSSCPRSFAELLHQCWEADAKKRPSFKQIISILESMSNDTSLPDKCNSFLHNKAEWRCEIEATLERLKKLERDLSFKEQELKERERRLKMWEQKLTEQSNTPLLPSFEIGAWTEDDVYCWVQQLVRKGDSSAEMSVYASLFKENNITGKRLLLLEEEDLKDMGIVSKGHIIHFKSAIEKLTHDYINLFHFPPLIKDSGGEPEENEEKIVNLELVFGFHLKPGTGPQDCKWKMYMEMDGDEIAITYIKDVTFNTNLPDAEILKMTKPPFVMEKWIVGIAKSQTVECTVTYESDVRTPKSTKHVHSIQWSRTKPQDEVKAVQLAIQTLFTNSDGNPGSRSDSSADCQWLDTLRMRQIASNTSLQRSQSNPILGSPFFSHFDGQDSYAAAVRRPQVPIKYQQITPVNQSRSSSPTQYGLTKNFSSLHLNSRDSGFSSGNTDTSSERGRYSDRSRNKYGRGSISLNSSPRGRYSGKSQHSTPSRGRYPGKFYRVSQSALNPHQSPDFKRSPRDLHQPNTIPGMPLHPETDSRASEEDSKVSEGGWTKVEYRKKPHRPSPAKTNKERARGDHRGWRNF
Chain of Tyrosine-protein kinase Lyn (Homo sapiens) (P07948 2-512 limits assumed): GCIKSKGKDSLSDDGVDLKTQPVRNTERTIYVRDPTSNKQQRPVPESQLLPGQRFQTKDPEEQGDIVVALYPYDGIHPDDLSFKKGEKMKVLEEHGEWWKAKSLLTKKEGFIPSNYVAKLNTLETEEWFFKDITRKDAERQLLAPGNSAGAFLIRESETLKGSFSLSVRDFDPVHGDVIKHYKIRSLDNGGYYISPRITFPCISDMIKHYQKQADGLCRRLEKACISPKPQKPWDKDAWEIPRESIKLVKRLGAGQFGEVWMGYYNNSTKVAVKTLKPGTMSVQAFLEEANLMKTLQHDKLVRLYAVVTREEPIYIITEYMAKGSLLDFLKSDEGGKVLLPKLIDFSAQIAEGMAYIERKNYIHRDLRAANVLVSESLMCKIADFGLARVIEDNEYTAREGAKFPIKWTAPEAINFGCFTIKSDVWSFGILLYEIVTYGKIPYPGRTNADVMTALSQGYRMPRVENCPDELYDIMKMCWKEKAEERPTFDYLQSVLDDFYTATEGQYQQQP
Chain of Mitogen-activated protein kinase kinase kinase 12 (Homo sapiens) (Q12852 whole entry, looked up, the tested form may be a part): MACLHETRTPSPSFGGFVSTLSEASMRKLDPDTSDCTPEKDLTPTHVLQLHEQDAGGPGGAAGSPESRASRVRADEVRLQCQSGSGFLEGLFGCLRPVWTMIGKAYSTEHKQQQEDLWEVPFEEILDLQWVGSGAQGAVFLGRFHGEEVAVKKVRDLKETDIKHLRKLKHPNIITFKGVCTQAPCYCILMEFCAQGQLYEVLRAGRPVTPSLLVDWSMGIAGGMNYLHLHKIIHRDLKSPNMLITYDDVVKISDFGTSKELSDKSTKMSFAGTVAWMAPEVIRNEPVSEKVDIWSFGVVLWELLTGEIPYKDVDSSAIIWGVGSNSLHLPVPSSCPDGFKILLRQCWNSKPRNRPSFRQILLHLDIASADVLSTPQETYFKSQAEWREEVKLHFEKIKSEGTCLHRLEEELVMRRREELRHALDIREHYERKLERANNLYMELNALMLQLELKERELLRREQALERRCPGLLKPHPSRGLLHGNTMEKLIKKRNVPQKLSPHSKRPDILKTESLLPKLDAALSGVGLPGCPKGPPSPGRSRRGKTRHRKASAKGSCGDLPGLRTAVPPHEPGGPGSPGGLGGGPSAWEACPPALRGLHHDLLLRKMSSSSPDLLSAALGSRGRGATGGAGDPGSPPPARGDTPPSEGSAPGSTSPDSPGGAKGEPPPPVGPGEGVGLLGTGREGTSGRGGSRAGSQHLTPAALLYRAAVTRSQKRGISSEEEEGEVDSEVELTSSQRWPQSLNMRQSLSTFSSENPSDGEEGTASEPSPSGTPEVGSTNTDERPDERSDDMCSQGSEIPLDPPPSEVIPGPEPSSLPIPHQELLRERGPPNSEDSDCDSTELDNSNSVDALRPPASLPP
Chain of Serine/threonine-protein kinase DCLK3 (Homo sapiens) (Q9C098 whole entry, the tested form may be a part): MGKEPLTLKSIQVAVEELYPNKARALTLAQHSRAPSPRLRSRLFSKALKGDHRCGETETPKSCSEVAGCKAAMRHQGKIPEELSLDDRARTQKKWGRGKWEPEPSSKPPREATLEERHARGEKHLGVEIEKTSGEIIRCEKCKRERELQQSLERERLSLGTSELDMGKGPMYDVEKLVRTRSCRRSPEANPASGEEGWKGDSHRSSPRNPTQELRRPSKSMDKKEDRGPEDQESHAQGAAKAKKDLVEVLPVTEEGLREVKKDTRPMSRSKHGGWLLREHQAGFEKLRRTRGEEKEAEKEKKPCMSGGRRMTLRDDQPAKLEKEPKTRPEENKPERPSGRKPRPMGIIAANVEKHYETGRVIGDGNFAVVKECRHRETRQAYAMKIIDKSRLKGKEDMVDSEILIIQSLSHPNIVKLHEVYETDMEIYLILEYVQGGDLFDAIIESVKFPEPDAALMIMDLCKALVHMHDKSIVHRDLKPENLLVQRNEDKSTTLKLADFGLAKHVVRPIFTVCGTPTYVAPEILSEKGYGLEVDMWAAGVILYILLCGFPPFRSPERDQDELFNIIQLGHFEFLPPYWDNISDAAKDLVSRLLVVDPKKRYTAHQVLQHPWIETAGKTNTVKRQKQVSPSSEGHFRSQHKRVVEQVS
Chain of Hormonally up-regulated neu tumor-associated kinase (Homo sapiens) (P57058 whole entry, the tested form may be a part): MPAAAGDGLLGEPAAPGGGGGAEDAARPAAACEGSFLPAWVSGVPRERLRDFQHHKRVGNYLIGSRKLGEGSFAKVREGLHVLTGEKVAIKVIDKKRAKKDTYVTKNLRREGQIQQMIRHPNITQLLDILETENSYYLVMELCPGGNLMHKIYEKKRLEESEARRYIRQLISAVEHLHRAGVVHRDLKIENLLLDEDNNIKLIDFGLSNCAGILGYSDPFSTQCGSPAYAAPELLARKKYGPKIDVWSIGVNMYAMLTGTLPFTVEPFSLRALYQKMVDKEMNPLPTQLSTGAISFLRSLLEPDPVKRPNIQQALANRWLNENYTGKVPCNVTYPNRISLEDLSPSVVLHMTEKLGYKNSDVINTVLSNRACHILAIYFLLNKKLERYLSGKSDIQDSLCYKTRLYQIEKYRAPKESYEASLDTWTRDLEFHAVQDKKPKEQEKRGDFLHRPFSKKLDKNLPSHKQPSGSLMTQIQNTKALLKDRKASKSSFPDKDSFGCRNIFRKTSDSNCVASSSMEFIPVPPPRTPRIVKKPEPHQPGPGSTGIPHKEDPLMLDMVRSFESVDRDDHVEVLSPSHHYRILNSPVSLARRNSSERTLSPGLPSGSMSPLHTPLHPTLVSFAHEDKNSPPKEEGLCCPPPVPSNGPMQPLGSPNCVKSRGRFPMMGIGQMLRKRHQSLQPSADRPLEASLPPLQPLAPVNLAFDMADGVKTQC

With `O=C(Nc1cccc([C@H]2CCCN(c3ncnc4[nH]ccc34)C2)c1)Nc1ccccc1N1CCCC1`, the inhibition in data set [1] was found to be 96%; in data set [2], 86%; in data set [3] it was 100%; in data set [4] it was 88%; in data set [5], 9.9%; in data set [6], 91%. Further, the inhibition amounted to 93% in [7], 84% in data set [8], 45% in [9] and 69% in data set [10].
With `O=C(Nc1cccc([C@@H]2CN(c3ncnc4[nH]ccc34)CCN2CCO)c1)Nc1c(F)cccc1N1CCCC1`, the inhibition in data set [11] is 98%; in [12], 100%; in data set [13], 81%; in data set [14] it was 97%; in [15] it was 90%; in data set [16], 99%. The inhibition in data set [17] is 100%; in [18], 73%; in data set [19], 72%; in [20], 100%; in data set [21], 82%; in data set [22], 86%. For the same compound, the inhibition amounted to 6.3% in data set [23], 0.3% in data set [24], 100% in [25] and 100% in data set [26]. The logD in [27] amounted to 2.6.
